The target of one assay is T1, Human DGAT1 (Homo sapiens, UniProt O75907).
T1 construct: made in house; host or cells: Sf9 insect cells (baculovirus); microsomes
T1 sequence (O75907 1-488): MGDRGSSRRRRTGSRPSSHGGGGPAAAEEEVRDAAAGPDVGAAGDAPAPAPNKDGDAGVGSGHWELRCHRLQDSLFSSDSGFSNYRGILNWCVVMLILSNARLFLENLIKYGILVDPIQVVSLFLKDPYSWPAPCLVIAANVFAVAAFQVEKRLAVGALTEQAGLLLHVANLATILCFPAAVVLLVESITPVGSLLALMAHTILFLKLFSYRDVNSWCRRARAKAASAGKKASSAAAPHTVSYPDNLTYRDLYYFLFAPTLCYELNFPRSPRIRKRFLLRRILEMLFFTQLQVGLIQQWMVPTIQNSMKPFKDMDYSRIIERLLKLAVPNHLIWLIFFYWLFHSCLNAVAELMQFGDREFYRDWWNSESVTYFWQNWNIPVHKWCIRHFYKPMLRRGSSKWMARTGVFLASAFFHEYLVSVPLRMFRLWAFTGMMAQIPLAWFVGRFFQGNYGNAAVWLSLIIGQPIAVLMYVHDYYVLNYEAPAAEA
The assay can be described thus: hDGAT1 fluorescence (CPM) assay, inhibition of CoA product formation. Particulars: human DGAT1 microsomes from Sf9 cells. The assay is classed as biochemical. On the procedure:
(§1) Human DGAT1 was expressed in Sf9 insect cells using a baculovirus expression system. Microsomes were prepared and used as enzyme for in vitro inhibition testing in either of two formats measuring production of coenzyme A or tridecanoylglycerol product, respectively. All steps were performed at 21-23° C. All data for DGAT1 inhibition by test compounds were collected under conditions where product formation was linear with reaction time.
For inhibition of CoA product formation, test compounds were prepared in 100% DMSO, diluted 100-fold into assay buffer, and 10 uL added to 96-well half-area plates (Greiner 675076). An equal volume (10 uL) of 3× enzyme in buffer was added and the components incubated for 30 minutes pre-reaction incubation to allow enzyme and test compounds to attain binding equilibrium. […] Some assays were performed with inclusion of didecanoylglycerol in the pre-reaction incubation of test compound and enzyme. DGAT reactions (30 uL) were initiated upon addition of 10 uL of 3× substrate solution. Final reaction conditions consisted of 20 mM HEPES pH 7.5, 2 mM MgCl2, 1 mM CHAPS, 50 uM didecanoylglycerol, 3 uM decanoyl-CoA, 1 ug/mL microsomal protein, and 1% DMSO. Following a 60 minute reaction incubation, reactions were stopped and CoA product derivatized with 30 uL of buffer containing 10 uM {4-[4-(4-amino-7,7-dimethyl-7H-pyrimido[4,5-b][1,4]oxazin-6-yl)phenyl]cyclohexyl}acetic acid and 50 uM 7-diethylamino-3-(4′-maleimidylphenyl)-4-methylcoumarin (CPM). Fluorescence was read using Envision reader at Ex 405 nm/Em 480 nm about 30 minutes after addition of final solution. Inhibition was normalized to controls containing DMSO or 10 uM {4-[4-(4-amino-7,7-dimethyl-7H-pyrimido[4,5-b][1,4]oxazin-6-yl)phenyl]cyclohexyl}acetic acid. IC50s were fitted using GraphPad Prism to a sigmoidal dose response.
With `Nc1ncnc2c1C(=O)N(c1cnc3c(ccn3-c3cccc(Cl)c3)c1)CCO2` [Example 68, 4-amino-6-[1-(3-chlorophenyl)-1H-pyrrolo[2,3-b]pyridin-5-yl]-5H,6H,7H,8H-pyrimido[5,4-f][1,4]oxazepin-5-one], the IC50 is 2.8 nM.

Consider `CCCn1c(-c2ccccc2)cc2cc(N3CCOc4ncnc(N)c4C3=O)ccc21` [Example 95, 4-Amino-6-(2-phenyl-1-propyl-1H-indol-5-yl)-7,8-dihydropyrimido[5,4-f][1,4]oxazepin-5(6H)-one], for which the IC50 was 10.1 nM.

In the case of `Nc1ncnc2c1C(=O)N(c1cnc3c(ccn3C3CC3)c1)CCO2` [Example 34, 4-Amino-6-(1-cyclopropyl-1H-pyrrolo[2,3-b]pyridin-5-yl)-7,8-dihydropyrimido[5,4-f][1,4]oxazepin-5(6H)-one], it took 25.7 nM to reach half-maximal inhibition (IC50).

For the compound `C=CCn1c2ccc(N3CCOc4ncnc(N)c4C3=O)cc2c(=O)n1Cc1ccccc1` [Example 10, 6-(1-Allyl-2-benzyl-3-oxo-2,3-dihydro-1H-indazol-5-yl)-4-amino-7,8-dihydropyrimido[5,4-f][1,4]oxazepin-5(6H)-one], half-maximal inhibition (IC50) was put at 42 nM.

`CN1CCc2cc(N3CCOc4ncnc(N)c4C3=O)ccc2C1=O` [Example 6, 6-{4-amino-5-oxo-5H,6H,7H,8H-pyrimido[5,4-f][1,4]oxazepin-6-yl}-2-methyl-1,2,3,4-tetrahydroisoquinolin-1-one] showed an IC50 of 85.8 nM.

On to `CC(C)c1cn(-c2ccccc2)c2ccc(N3CCOc4ncnc(N)c4C3=O)cc12` [Example 94, 4-Amino-6-(3-isopropyl-1-phenyl-1H-indol-5-yl)-7,8-dihydropyrimido[5,4-f][1,4]oxazepin-5(6H)-one], for which the IC50 worked out at 873 nM.

For the compound `CCCn1[nH]c(=O)c2cc(N3CCOc4ncnc(N)c4C3=O)ccc21` [Example 11, 4-Amino-6-(3-oxo-1-propyl-2,3-dihydro-1H-indazol-5-yl)-7,8-dihydropyrimido[5,4-f][1,4]oxazepin-5(6H)-one], the IC50 is 6.3 nM.

`Nc1ncnc2c1C(=O)N(c1ccc3c(c1)CCC(=O)N3CC(=O)O)CCO2` [Example 3, 2-(6-{4-amino-5-oxo-5H,6H,7H,8H-pyrimido[5,4-f][1,4]oxazepin-6-yl}-2-oxo-1,2,3,4-tetrahydroquinolin-1-yl)acetic acid] returned an IC50 of 372 nM.

Compound `Nc1ncnc2c1C(=O)N(c1ccc3c(ccn3-c3cnccn3)c1)CCO2` [Example 87, 4-amino-6-[1-(pyrazin-2-yl)-1H-indol-5-yl]-5H,6H,7H,8H-pyrimido[5,4-f][1,4]oxazepin-5-one] registered an IC50 of 55.1 nM.

In turn, `Nc1ncnc2c1C(=O)N(c1ccc3c(ccn3-c3nccs3)c1)CCO2` [Example 82, 4-Amino-6-(1-(thiazol-2-yl)-1H-indol-5-yl)-7,8-dihydropyrimido[5,4-f][1,4]oxazepin-5(6H)-one] yielded an IC50 of 20.5 nM.

Compound `Nc1ncnc2c1C(=O)N(c1ccc3c(ccn3-c3ccc(C(F)(F)F)nc3)c1)CCO2` [Example 83, 4-Amino-6-(1-(6-(trifluoromethyl)pyridin-3-yl)-1H-indol-5-yl)-7,8-dihydropyrimido[5,4-f][1,4]oxazepin-5(6H)-one] came in with an IC50 of 40 nM.

`Nc1ncnc2c1C(=O)N(c1ccc3c(ccn3-c3ccccc3F)c1)CCO2` [Example 76, 4-amino-6-[1-(2-fluorophenyl)-1H-indol-5-yl]-5H,6H,7H,8H-pyrimido[5,4-f][1,4]oxazepin-5-one] registered an IC50 of 2.5 nM.

`Nc1ncnc2c1C(=O)N(c1ccc3c(ccn3-c3ccc(C(F)(F)F)cc3)c1)CCO2` [Example 78, 4-amino-6-{1-[4-(trifluoromethyl)phenyl]-1H-indol-5-yl}-5H,6H,7H,8H-pyrimido[5,4-f][1,4]oxazepin-5-one] registered an IC50 of 7.3 nM.

As to `CCCn1ccc2cc(N3CCOc4ncnc(N)c4C3=O)ccc21` [Example 12, 4-Amino-6-(1-propyl-1H-indol-5-yl)-7,8-dihydropyrimido[5,4-f][1,4]oxazepin-5(6H)-one], the IC50 is 16.3 nM.

`Nc1ncnc2c1C(=O)N(c1cnc3c(ccn3CCO)c1)CCO2` [Example 59, 4-amino-6-[1-(2-hydroxyethyl)-1H-pyrrolo[2,3-b]pyridin-5-yl]-5H,6H,7H,8H-pyrimido[5,4-f][1,4]oxazepin-5-one] came in with an IC50 of 49.5 nM.

As for `Nc1ncnc2c1C(=O)N(c1cnc3c(ccn3-c3ccc(C(F)(F)F)cc3)c1)CCO2` [Example 66, 4-Amino-6-(1-(4-(trifluoromethyl)phenyl)-1H-pyrrolo[2,3-b]pyridin-5-yl)-7,8-dihydropyrimido[5,4-f][1,4]oxazepin-5(6H)-one], the midpoint of inhibition, the IC50, lay at 42.5 nM.

In another assay the target is T1, Human DGAT1. Briefly: hDGAT1 lipid extraction (LE) assay, inhibition of triacylglycerol product formation. The assay is classed as biochemical. The note with it: human DGAT1 microsomes from Sf9 cells; radiolabelled tridecanoylglycerol extraction. On the procedure: as §1
For inhibition of triacylglycerol product formation, 11 uL reactions were run in white Polyplate-384 (PerkinElmer6007300) starting with a 30 minute pre-reaction incubation of 5 uL of 2.2× enzyme and 1 uL of 100% DMSO containing test compound or control compound, {4-[4-(4-amino-7,7-dimethyl-7H-pyrimido[4,5-b][1,4]oxazin-6-yl)phenyl]cyclohexyl}acetic acid. Some assays were performed with inclusion of didecanoylglycerol in the pre-reaction incubation of test compounds and enzyme. Reactions were initiated after 30 minute pre-reaction incubation via addition of 5 uL of 2.2× substrate. Final reaction conditions consisted of 50 mM HEPES pH 7.5, 2 mM MgCl2, 1 mM CHAPS, 25 uM didecanoylglycerol, 0.5 uM decanoyl-CoA, 0.3 nCi/uL [^14C]-decanoyl-CoA or 0.5 nCi/uL [^3H]-decanoyl-CoA, 0.05-4 ug/mL microsomal protein, and 1% DMSO. Following 60 minute reaction incubation, reactions were stopped with 40 uL of 45% isopropanol and 50 mM sodium carbonate in water and mixed. Extraction of tridecanoylglycerol product was accomplished via addition of 30 uL Microscint-E (Perkin Elmer) and 2 hours of incubation (sealed). Plates were read on a Microbeta Microplate reader. Inhibition was normalized to controls containing DMSO or 10 uM {4-[4-(4-amino-7,7-dimethyl-7H-pyrimido[4,5-b][1,4]oxazin-6-yl)phenyl]cyclohexyl}acetic acid. IC50s were fitted using GraphPad Prism to a sigmoidal dose response.
As to `Nc1ncnc2c1C(=O)N(c1ccc3ncn(Cc4ccccc4)c(=O)c3c1)CCO2` [Example 97, 4-Amino-6-(3-benzyl-4-oxo-3,4-dihydroquinazolin-6-yl)-7,8-dihydropyrimido[5,4-f][1,4]oxazepin-5(6H)-one], the IC50 is 201 nM.

“4-amino-6-(6-fluoro-1-phenyl-1H-indol-5-yl)-5H,6H,7H,8H-pyrimido[5,4-f][1,4]oxazepin-5-one [Example 96]” displayed an IC50 of 7.3 nM.

Turning to `CS(=O)(=O)n1ccc2cc(N3CCOc4ncnc(N)c4C3=O)ccc21` [Example 60, 4-amino-6-(1-methanesulfonyl-1H-indol-5-yl)-5H,6H,7H,8H-pyrimido[5,4-f][1,4]oxazepin-5-one], the IC50 was 14.8 nM.

`Nc1ncnc2c1C(=O)N(c1ccc3c(ccn3-c3ccc(F)c(F)c3)c1)CCO2` [Example 74, 4-amino-6-[1-(3,4-difluorophenyl)-1H-indol-5-yl]-5H,6H,7H,8H-pyrimido[5,4-f][1,4]oxazepin-5-one]: the midpoint of inhibition, the IC50, lay at 4.5 nM.

Compound `CCCn1cc(C(C)(OC)C(F)(F)F)c2cc(N3CCOc4ncnc(N)c4C3=O)ccc21` (stereo not shown) [Example 64, 4-amino-6-[1-propyl-3-(1,1,1-trifluoro-2-methoxypropan-2-yl)-1H-indol-5-yl]-5H,6H,7H,8H-pyrimido[5,4-f][1,4]oxazepin-5-one] had an IC50 of 8.8 nM.

In turn, `Nc1ncnc2c1C(=O)N(c1ccc3c(ccn3-c3ccccc3)c1)CCO2` [Example 65, 4-Amino-6-(1-phenyl-1H-indol-5-yl)-7,8-dihydropyrimido[5,4-f][1,4]oxazepin-5(6H)-one] came in with an IC50 of 3.9 nM.

In turn, `Nc1ncnc2c1C(=O)N(c1cnc3c(ccn3-c3ccccc3)c1)CCO2` [Example 72, 4-amino-6-{1-phenyl-1H-pyrrolo[2,3-b]pyridin-5-yl}-5H,6H,7H,8H-pyrimido[5,4-f][1,4]oxazepin-5-one] gave an IC50 of 9.3 nM.

`Nc1ncnc2c1C(=O)N(c1cnc3c(ccn3CC(F)F)c1)CCO2` [Example 33, 4-Amino-6-(1-(2,2-difluoroethyl)-1H-pyrrolo[2,3-b]pyridin-5-yl)-7,8-dihydropyrimido[5,4-f][1,4]oxazepin-5(6H)-one]: the IC50 is 23.3 nM.

On to `Nc1ncnc2c1C(=O)N(c1ccc3c(ccn3-c3cccc(C(F)(F)F)c3)c1)CCO2` [Example 80, 4-amino-6-{1-[3-(trifluoromethyl)phenyl]-1H-indol-5-yl}-5H,6H,7H,8H-pyrimido[5,4-f][1,4]oxazepin-5-one], for which 3.6 nM corresponded to half-maximal inhibition (IC50).

For the origin of these results see patent publication US9540400B2, “Compounds as diacylglycerol acyltransferase inhibitors” (GlaxoSmithKline Intellectual Property (No. 2) Limited, priority 2011, dated 2017).
